Values of other authors as cited in US20080305060A1, “AQUEOUS-ALCOHOLIC DEPIGMENTING GELS” (GALDERMA RESEARCH & DEVELOPMENT, priority 2005, published 2008).
Like-named read-outs stand apart in the source and are kept apart here.

In the case of Oc1ccc(O)cc1 [hydroquinone], the Incidence of irritation (10% hydroquinone concentration) is given as “relatively high”, the Incidence of irritation (hydroquinone concentration of 2%) is given as “virtually nonexistent” and the Incidence of irritation (preparations with a 5% dose of hydroquinone) is given as “reduces greatly”.
